Legend:
[1] = test system: patients with Alzheimer's disease; test: Revised Hasegawa dementia scale (HDS-R) scoring of patients with Alzheimer's disease; type: in vivo, human
Description: Both groups take medicine for 12 continuous weeks. 2 ml of cerebrospinal fluid is collected by lumbar puncture, and is stored at −80° C., the β-amyloid protein (Aβ) content is determined by using enzyme-linked immunosorbent assay (ELISA). A revised Hasegawa dementia scale (HDS-R) is used to score, and the scores before and after treatment are compared, increasing in scores means validness, and unchanging or decreasing in scores means invalidness. The enumeration data adopts χ^2 test, the comparison of measurement data adopts t-test, all data is processed by adopting SPSS12.0 statistical software.
Analysis on the clinical therapeutic effect of the two groups.

[2] = test system: patients with mild or moderate Alzheimer's disease; test: Placebo-controlled clinical research, MMSE/CDR/ADL, mild or moderate Alzheimer's disease (Test Example 4); type: in vivo, human
Source text: 89 patients with mild or moderate Alzheimer's disease are divided into two groups randomly, one of which take ginsenoside Rg3, and the other placebos. There are 46 patients in the group taking Rg3, with 21 male and 25 female, aged from 58 to 87 (72.6±6.8), scoring from 10 to 24 (17.8±2.3) points in the mini-mental state examination (MMSE); there are 43 patients taking placebos, with 19 male and 24 female aged from 57 to 88 (71.8±8.2), scoring from 10 to 24 (18.2±2.7) points in MMSE. There are no obvious differences between the ginsenoside Rg3 group and the placebo group with respect to gender, age and MMSE scores. The patents in the group taking ginsenoside Rg3 use the ginsenoside Rg3 naristillae once a day for 12 continuous weeks, with 10 mg/ml for each time.
For the patients taking placebos, except that what is used for intranasal administration are placebos, the rest is conducted according to the same administration method as that adopted by those taking ginsenoside Rg3.
The ginsenoside Rg3 naristillae has a concentration of 10 mg/ml, and colors, characters, tastes and dosages of the placebos are the same as those of the ginsenoside Rg3 naristillae. The ginsenoside Rg3 naristillae and the placebos are applied once a day for 12 continuous weeks. Examination is conducted once every four weeks before and after medication, and the examination method is as follows:
(1) MMSE Screening of AD: examining patients' cognitive functions (orientation, memory, computational power, language competence, ability in applying visual-spatial segment etc.; (2) Examining patents' dementia degrees using the clinical dementia rating (CDR); (3) Examining patents' activities of daily living using the activity of daily living scale (ADL).
SPSS statistical software is adopted for examination results. T-test is adopted before and after treatment, and it is also adopted for the ginsenoside Rg3 naristillae group and the placebo control group. For scoring results of MMSE, CDR and ADL of patients with AD before treatment, see table 5

[3] = test system: rat model with Alzheimer's disease; test: Channel-type water maze test, learning and memory of rat model with Alzheimer's disease; type: in vivo, Wistar rats; details: AD model rats
Description: Water maze pre-training is performed after feeding for 1 week under the stable condition of laboratory, 60 rats with similar body weights and good flexibility are selected, and are divided into 6 groups randomly, a normal control group, a sham operated control group, a model control group, and high-dose, medium-dose and low-dose ginsenoside Rg3 groups (10, 5, 2.5 mg/kg/d), wherein each group has 10 animals.
The molding method applying intraperitoneal injection of 0.96% D-galactose prepared by normal saline is applied to rats to make model rat, 5 mL/kg, once daily for 6 continuous weeks. The rat of sham operated control group are injected with equivalent normal saline. The rat groups of the model control group and high-dose, medium-dose and low-dose ginsenoside Rg3 groups are intracranially injected with IBO starting from the 43th day, and each side is slowly injected with 1 μL of IBO, the sham operated group's rats are injected with equivalent normal saline in the same encephalic region (for 4 continuous weeks). The normal control group's rat are without any processing and eat and drink normally. The rats of high-dose, medium-dose and low-dose ginsenoside Rg3 groups are administered intragastrically with ginsenoside Rg3 oral emulsion daily while molding, and are administered for 4 w (weeks) after molding.
The changes of animal behavioristics in each group are tested by channel-type water maze test, and the learning and memory abilities of rats are evaluated by number of entering blind ends and the time needed to reach the terminal. All test results are expressed in mean±standard deviation, and the intergroup difference is subjected to variance analysis by adopting SPSS10.0 statistical package.

[4] = cited from earlier work
[5] = test system: patients with mild or moderate Alzheimer's disease; test: Self-controlled clinical research, MMSE/CDR/ADL, mild or moderate Alzheimer's disease (Test Example 5); type: in vivo, human
Description: 99 patients with mild or moderate Alzheimer's disease, among which 47 are male, 52 are female, all aged from 55 to 85 (73.5±7.6), MMSE score is […] (16.3±2.6) points.
Patients with AD all use the ginsenoside Rg3 naristillae once a day, 10 mg/ml each time, and keep using it for 12 weeks.
Examination is conducted once every four weeks before and after medication, and the medication method is as follows:
(1) MMSE screening of AD: examining patients' cognitive functions (orientation, memory, computational power, language competence, ability in applying visual-spatial etc.; (2) Examining patents' dementia degree using the clinical dementia rating (CDR); (3) examining patents' activities of daily living using the activity of daily living scale (ADL).
SPSS statistical software is adopted for examination results. T-test is adopted before and after treatment, and it is also adopted for the ginsenoside Rg3 naristillae group and the placebo control group.

β-amyloid protein (Aβ) = test: Cerebrospinal fluid β-amyloid protein content (ELISA) of patients with Alzheimer's disease; type: in vivo, human; details: AD inpatients
Description: 2 ml of cerebrospinal fluid is collected by lumbar puncture, and is stored at −80° C., the β-amyloid protein (Aβ) content is determined by using enzyme-linked immunosorbent assay (ELISA). A revised Hasegawa dementia scale (HDS-R) is used to score, and the scores before and after treatment are compared, increasing in scores means validness, and unchanging or decreasing in scores means invalidness. The enumeration data adopts χ^2 test, the comparison of measurement data adopts t-test, all data is processed by adopting SPSS12.0 statistical software.

[6] = of 18 patients per group, 12 weeks
[7] = 46 AD patients, Rg3 naristillae 10 mg/ml intranasal once a day
[8] = Rg3 oral emulsion (embodiment 17) intragastric, 10 mg/kg/d
[9] = Rg3 oral emulsion intragastric, 2.5 mg/kg/d
[10] = Rg3 oral emulsion intragastric, 5 mg/kg/d
[11] = 99 AD patients, Rg3 naristillae 10 mg/ml once a day
[12] = Test Example 5, versus before treatment

SMILES: CC(C)=CCC[C@](C)(O)[C@H]1CC[C@]2(C)[C@@H]1[C@H](O)C[C@@H]1[C@@]3(C)CC[C@H](O[C@@H]4O[C@H](CO)[C@@H](O)[C@H](O)[C@H]4O[C@@H]4O[C@H](CO)[C@@H](O)[C@H](O)[C@H]4O)C(C)(C)[C@@H]3CC[C@]12C [Ginsenoside Rg3, 20(R)-ginsenoside Rg3]
- effective rate (patients increased in HDS-R scores) ([1]; 18 AD patients per group, Rg3 oral liquid 10 mg/d or donepezil 5 mg/d, 12 weeks): 77.8%
- Scores of clinical symptom (HDS-R), post treatment ([1]; AD inpatients, n = 18, Rg3 oral liquid 10 mg/d or donepezil 5 mg/d orally, 12 weeks): 18.7 ± 8.1^#Δ
- Scores of clinical symptom (HDS-R), before treatment ([1]; AD inpatients, n = 18 per group, baseline): 12.3 ± 5.2
- number of patients constant in scores [1, 6]: 3
- number of patients decreased in scores [1, 6]: 1
- number of patients increased in scores of clinical symptom [1, 6]: 14
- ADL score before treatment ([2]; 46 AD patients, baseline): 47.2 ± 7.9 points
- CDR score before treatment ([2]; 46 AD patients, baseline): 1.9 ± 0.3 points
- MMSE score before treatment ([2]; 46 AD patients, baseline): 17.8 ± 2.3 points
- ADL score after treatment for 12 weeks [2, 7]: 40.5 ± 7.6 points
- CDR score after treatment for 12 weeks [2, 7]: 1.2 ± 0.2 points
- MMSE score after treatment for 12 weeks ([2]; 46 AD patients, Rg3 naristillae (embodiment 29) 10 mg/ml intranasal once a day): 24.1 ± 2.0 points
- decrease of ADL score after treatment compared with before treatment ([2]; Test Example 4, Rg3 naristillae, 12 weeks): 7.1 points
- Error times [3, 8]: 1.01 ± 0.41 time
- Swimming out time [3, 8]: 12.26 ± 3.26 s
- Error times [3, 9]: 1.82 ± 0.43 time
- Swimming out time [3, 9]: 32.26 ± 3.21 s
- Error times [3, 10]: 1.10 ± 0.44 time
- Swimming out time [3, 10]: 19.26 ± 3.23 s
- lipid solubility and water solubility [4]: relatively poor
- ADL score before treatment ([5]; 99 AD patients, baseline): 49.6 ± 8.2 points
- CDR score before treatment ([5]; 99 AD patients, baseline): 2.1 ± 0.3 points
- MMSE score before treatment ([5]; 99 AD patients, baseline): 16.3 ± 2.6 points
- ADL score, treatment for 4 weeks [5, 11]: 48.2 ± 7.9 points
- ADL score, treatment for 12 weeks [5, 11]: 42.5 ± 7.3 points
- CDR score, treatment for 4 weeks [5, 11]: 1.9 ± 0.2 points
- CDR score, treatment for 12 weeks [5, 11]: 1.5 ± 0.2 points
- MMSE score, treatment for 4 weeks [5, 11]: 17.1 ± 1.9 points
- MMSE score, treatment for 12 weeks [5, 11]: 19.8 ± 1.7 points
- decrease of ADL score after treatment [5, 12]: 7.1 points
- decrease of CDR score after treatment for 12 weeks [5, 12]: 0.6 points
- increase of MMSE score after treatment for 12 weeks [5, 12]: 3.5 points
- Aβ content in cerebrospinal fluid, post treatment (β-amyloid protein (Aβ); n = 18, Rg3 oral liquid 10 mg/d or donepezil 5 mg/d orally, 12 weeks): 3.8 ± 1.5
- Aβ content in cerebrospinal fluid, before treatment (β-amyloid protein (Aβ); n = 18 per group, baseline): 5.9 ± 2.6
